Assay results taken from patent publication US8987193B2, “Nisin derivatives and the use thereof” (University College Cork—National University of Ireland, Cork, priority 2008, dated 2015).
Entries after “also recorded” stand apart in the source; their conditions may differ. Ends that are not written are not given here.

Assays:
L. monocytogenes CBC1 = test: Deferred antagonism assay; format: cell-based, Listeria monocytogenes; set-up: key: + = Enhanced bioactivity relative to control; − = Bioactivity equal to or less than control; NA = no activity evident; conditions: L. mono CBC1; XX and XXX hinge mutant producers
Experimental: (§1) Deferred antagonism assays were performed by replicating strains on GM17 or GM17 x-gal agar plates and allowing them to grow overnight before overlaying with either GM17/BHI/TS/MH agar (0.75% w/v agar) seeded with the appropriate indicator strain. Zone size was calculated as the diameter of the zone of clearing minus the diameter of bacterial growth (5 mm) For higher throughput screening of N20PXX, XM21VX, XXK22T and XXX banks deferred antagonism assays were performed by replicating strains using a 96 pin replicator (Boekel) or spotting 5 μl of a fresh overnight culture on GM17 agar plates and allowing them to grow overnight. […] Additional sets of indicators were employed to further assess/reassess the bioactivity of a number of strains. […] For well-diffusion assays molten agar was cooled to 48° C. and seeded with the appropriate indicator strain. The inoculated medium was rapidly transferred into sterile Petri plates in 50 ml volumes, allowed to solidify and dried. Wells (4.6 mm in diameter) were then made in the seeded plates. Purified nisin and mutant nisins were resuspended in 0.005% acetic acid, serially diluted, 50 μl volumes were dispensed into the aforementioned wells and the plates incubated at 37° C. overnight. Bioactivity was expressed as arbitrary units/ml (AU/ml) and calculated as the reciprocal of the highest dilution that gave a definite zone multiplied by the conversion factor (i.e. 20 when 50 μl was used) (Ryan et al., 1996).
(§2) As a consequence of the enhanced activities of K22T and K22S, a more in-depth investigation of this region was carried out. Saturation mutagenesis was undertaken to create a bank of nisin A hinge derivatives containing the vast majority of possible amino acid substitutions for each position. Although pPTPL was used successfully for random mutagenesis, its relatively large size of approx 10.5 kb was considered unsuitable for the complete plasmid PCR amplification approach utilized for saturation mutagenesis. A smaller (approx 6 kb) E. coli-L. lactis shuttle vector pCI372 was considered to be potentially more useful. Its suitability with respect to the in trans expression of nisA was confirmed by the ability of pDFO5 to restore the nisin positive phenotype. Saturation mutagenesis was performed on each codon using pDF05 and oligonucleotides (Table 5) that replace the specific codon with a NNK triplet, potentially encoding all 20 standard amino acids. Following complete plasmid amplification and introduction into the intermediate Top10 host, sequence analysis of a pooled bank of pDF05 derivatives confirmed randomization. Introduction of these variants into L. lactis NZ9800 allowed the expression of mutant nisin A peptides for further analysis. […] 46 residue conversions were isolated. All strains, regardless of bioactivity, were assessed with a view to comprehensively assessing the consequences of each individual hinge alteration.

L. monocytogenes CBC2 = test: Deferred antagonism assay; format: cell-based, Listeria monocytogenes; set-up: key: + = Enhanced bioactivity relative to control; − = Bioactivity equal to or less than control; NA = no activity evident; conditions: L. mono CBC2; XX and XXX hinge mutant producers
Experimental: as §1, §2

L. monocytogenes CBC3 = test: Deferred antagonism assay; format: cell-based, Listeria monocytogenes; set-up: key: + = Enhanced bioactivity relative to control; − = Bioactivity equal to or less than control; NA = no activity evident; conditions: L. mono CBC3; XX and XXX hinge mutant producers
Experimental: as §1, §2

L. lactis CBC7 = test: Deferred antagonism assay; format: cell-based; set-up: key: + = Enhanced bioactivity relative to control; − = Bioactivity equal to or less than control; NA = no activity evident; conditions: XX and XXX hinge mutant producers
Experimental: as §1, §2

L. lactis CBC8 = test: Deferred antagonism assay; format: cell-based; set-up: key: + = Enhanced bioactivity relative to control; − = Bioactivity equal to or less than control; NA = no activity evident; conditions: XX and XXX hinge mutant producers
Experimental: as §1, §2

S. aureus CBC4 = test: Deferred antagonism assay; format: cell-based; set-up: key: + = Enhanced bioactivity relative to control; − = Bioactivity equal to or less than control; NA = no activity evident; conditions: XX and XXX hinge mutant producers
Experimental: as §1, §2

L. plantarum CBC6 = test: Deferred antagonism assay; format: cell-based, Lactobacillus plantarum; set-up: key: + = Enhanced bioactivity relative to control; − = Bioactivity equal to or less than control; NA = no activity evident; conditions: XX and XXX hinge mutant producers
Experimental: as §1, §2

indicator strains = test: Deferred antagonism assays, various indicator strains (summary); format: cell-based; conditions: for Target strain against which the hinge mutant was selected for enhanced bioactivity: XX and XXX banks, L. lactis HP*: enhanced or equal; for Target strain against which the hinge mutant was selected for enhanced bioactivity / Strain(s) against which the derivative (producing strain) displays enhanced bioactivity: relative to nisin A-producing control; for number of targets with enhanced activity: of the 8 additional targets tested; for Strain(s) against which the derivative (producing strain) displays enhanced bioactivity: value = strains listed
Experimental: as §1

## NisinA GLA (ITSISLCTPGCKTGALMGCGLATATCHCSIHVSK; cysteine pairing not given here; also: lantibiotic nisin-A; UniProt P13068 24-57, looked up, variant N20G M21L K22A) [nisin A hinge variant GLA (i.e. N20G, M21L, K22A)]
L. monocytogenes CBC1
  bioactivity relative to a nisin A-producing control: −
L. monocytogenes CBC2
  bioactivity relative to a nisin A-producing control: −
L. monocytogenes CBC3
  bioactivity relative to a nisin A-producing control: −
L. lactis CBC7
  bioactivity relative to a nisin A-producing control: −
L. lactis CBC8
  bioactivity relative to a nisin A-producing control: −
S. aureus CBC4
  bioactivity relative to a nisin A-producing control: −
L. plantarum CBC6
  bioactivity relative to a nisin A-producing control: −
Indicator strains
  Target strain against which the hinge mutant was selected for enhanced bioactivity: B. cereus UCC1
  number of targets with enhanced activity: 1
  Strain(s) against which the derivative (producing strain) displays enhanced bioactivity: B. cereus UCC1

## NisinA GVK
L. monocytogenes CBC1
  bioactivity relative to a nisin A-producing control: −
L. monocytogenes CBC2
  bioactivity relative to a nisin A-producing control: −
L. monocytogenes CBC3
  bioactivity relative to a nisin A-producing control: +
L. lactis CBC7
  bioactivity relative to a nisin A-producing control: +
L. lactis CBC8
  bioactivity relative to a nisin A-producing control: −
S. aureus CBC4
  bioactivity relative to a nisin A-producing control: +
L. plantarum CBC6
  bioactivity relative to a nisin A-producing control: −
Indicator strains
  Target strain against which the hinge mutant was selected for enhanced bioactivity: C. sporogenes UCC1
  number of targets with enhanced activity: 3
  Strain(s) against which the derivative (producing strain) displays enhanced bioactivity: C. sporogenes UCC1, L. monocytogenes CBC3, S. aureus CBC4 and L. lactis CBC7 and C. sporogenes UCC1, L. mono CBC3, S. aureus CBC4, L. lactis and CBC7

## NisinA PAQ (ITSISLCTPGCKTGALMGCPAQTATCHCSIHVSK; not fully specified (bridges); also: lantibiotic nisin-A: lanthionine rings and dehydrated residues, places not given here; UniProt P13068 24-57, looked up, variant N20P M21A K22Q) [nisin A hinge variant PAQ (i.e. N20P, M21A, K22Q)]
Indicator strains
  Target strain against which the hinge mutant was selected for enhanced bioactivity: L. lactis HP*
  number of targets with enhanced activity: 3
  Strain(s) against which the derivative (producing strain) displays enhanced bioactivity: S. agalactiae ATCC13813 and strain B and S. aureus NCDO1499

## NisinA PGA (ITSISLCTPGCKTGALMGCPGATATCHCSIHVSK; not fully specified (bridges); also: lantibiotic nisin-A: lanthionine rings and dehydrated residues, places not given here; UniProt P13068 24-57, looked up, variant N20P M21G K22A) [nisin A hinge variant PGA (i.e. N20P, M21G, K22A)]
Indicator strains
  Target strain against which the hinge mutant was selected for enhanced bioactivity: L. lactis HP*
  number of targets with enhanced activity: 3
  Strain(s) against which the derivative (producing strain) displays enhanced bioactivity: S. agalactiae ATCC13813 and strain B and S. aureus NCDO1499

## NisinA PHT (ITSISLCTPGCKTGALMGCPHTTATCHCSIHVSK; not fully specified (bridges); also: lantibiotic nisin-A: lanthionine rings and dehydrated residues, places not given here; UniProt P13068 24-57, looked up, variant N20P M21H K22T) [nisin A hinge variant PHT (i.e. N20P, M21H, K22T)]
Indicator strains
  Target strain against which the hinge mutant was selected for enhanced bioactivity: Strep. agalactiae ATCC 13813
  number of targets with enhanced activity: 3
  Strain(s) against which the derivative (producing strain) displays enhanced bioactivity: Strep. agalactiae ATCC 13813 and Strain B, and L. lactis MG1363; also recorded: Strep. agalactiae ATCC 13813, L. lactis MG1363, S. agalactiae

## NisinA PIH (ITSISLCTPGCKTGALMGCPIHTATCHCSIHVSK; not fully specified (bridges); also: lantibiotic nisin-A: lanthionine rings and dehydrated residues, places not given here; UniProt P13068 24-57, looked up, variant N20P M21I K22H) [nisin A hinge variant PIH (i.e. N20P, M21I, K22H)]
Indicator strains
  Target strain against which the hinge mutant was selected for enhanced bioactivity: L. lactis HP*
  number of targets with enhanced activity: 1
  Strain(s) against which the derivative (producing strain) displays enhanced bioactivity: S. agalactiae Strain B

## NisinA PIT (ITSISLCTPGCKTGALMGCPITTATCHCSIHVSK; not fully specified (bridges); also: lantibiotic nisin-A: lanthionine rings and dehydrated residues, places not given here; UniProt P13068 24-57, looked up, variant N20P M21I K22T) [nisin A hinge variant PIT (i.e. N20P, M21I, K22T)]
Indicator strains
  Target strain against which the hinge mutant was selected for enhanced bioactivity: L. lactis HP*
  number of targets with enhanced activity: 3
  Strain(s) against which the derivative (producing strain) displays enhanced bioactivity: S. agalactiae ATCC13813 and strain B and S. aureus NCDO1499

## NisinA PIV (ITSISLCTPGCKTGALMGCPIVTATCHCSIHVSK; not fully specified (bridges); also: lantibiotic nisin-A: lanthionine rings and dehydrated residues, places not given here; UniProt P13068 24-57, looked up, variant N20P M21I K22V) [nisin A hinge variant PIV (i.e. N20P, M21I, K22V)]
Indicator strains
  Target strain against which the hinge mutant was selected for enhanced bioactivity: L. lactis HP*
  number of targets with enhanced activity: 3
  Strain(s) against which the derivative (producing strain) displays enhanced bioactivity: S. agalactiae ATCC13813 and strain B and S. aureus NCDO1499

## NisinA PMA
Indicator strains
  Target strain against which the hinge mutant was selected for enhanced bioactivity: Strep. agalactiae ATCC 13813
  number of targets with enhanced activity: 1
  Strain(s) against which the derivative (producing strain) displays enhanced bioactivity: Strep. agalactiae ATCC 13813 and S. aureus DPC5246

## PHM: nisin A hinge variant PHM (i.e. N20P, M21H, K22M) (ITSISLCTPGCKTGALMGCPHMTATCHCSIHVSK; not fully specified (bridges); also: lantibiotic nisin-A: lanthionine rings and dehydrated residues, places not given here; UniProt P13068 24-57, looked up, variant N20P M21H K22M)
Indicator strains
  Target strain against which the hinge mutant was selected for enhanced bioactivity: Strep. agalactiae ATCC 13813
  number of targets with enhanced activity: 2
  Strain(s) against which the derivative (producing strain) displays enhanced bioactivity: Strep. agalactiae ATCC 13813 and Strain B; also recorded: Strep. agalactiae ATCC 13813, S. agalactiae Strain B
